Measurements as given in patent US6737383B1, “Herbicidal oxadiazolidines” (priority 1999, dated 2004).

Assays:
morningglory = assay: Test B pre/postemergence morningglory; type: in vivo, Ipomoea hederacea; settings: for Plant response rating, Morningglory: scale of 0 to 10 where 0 is no effect and 10 is complete control
Method in brief: (§1)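 Herbicidal effect was estimated by eye on a ten-point control scale after plants spent twelve to sixteen days in a greenhouse following soil or foliar treatment. Foliar sprays targeted plants at one to four leaves; all doses were formulated in a non-phytotoxic solvent with surfactant.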

velvetleaf = assay: Test B pre/postemergence velvetleaf; type: in vivo, Abutilon theophrasti; settings: for Plant response rating, Velvetleaf: scale of 0 to 10 where 0 is no effect and 10 is complete control
Method in brief: as §1

smallflower flatsedge = assay: Test B flood test smallflower flatsedge; type: in vivo, Cyperus difformis
Method in brief: (§2)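 Plants were grown to the 2-leaf stage before treatment with test chemical, then held in a greenhouse for twelve to sixteen days. Injury was visually rated against untreated controls on a 0–10 scale, where 0 is no effect and 10 is complete control.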

pigweed = assay: Test B pre/postemergence pigweed; type: in vivo, Amaranthus retroflexus; settings: for Plant response rating, Redroot pigweed: scale of 0 to 10 where 0 is no effect and 10 is complete control
Method in brief: as §1

giant foxtail = assay: Test B pre/postemergence giant foxtail; type: in vivo, Setaria faberii
Method in brief: as §1

crabgrass = assay: Test B pre/postemergence crabgrass; type: in vivo, Digitaria sanguinalis
Method in brief: as §1

rape = assay: Test B pre/postemergence rape; type: in vivo, Brassica napus; settings: for Plant response rating, Rape: scale of 0 to 10 where 0 is no effect and 10 is complete control
Method in brief: as §1

blackgrass = assay: Test B pre/postemergence blackgrass; type: in vivo, Alopecurus myosuroides
Method in brief: as §1

cocklebur = assay: Test B pre/postemergence cocklebur; type: in vivo, Xanthium strumarium
Method in brief: as §1

wheat = assay: Test B pre/postemergence wheat; type: in vivo, Triticum aestivum; settings: for Plant response rating, Wheat: scale of 0 to 10 where 0 is no effect and 10 is complete control
Method in brief: as §1

sugar beet = assay: Test B pre/postemergence sugar beet; type: in vivo, Beta vulgaris; settings: for Plant response rating, Sugarbeets: scale of 0 to 10 where 0 is no effect and 10 is complete control
Method in brief: as §1

purple nutsedge = assay: Test B pre/postemergence purple nutsedge; type: in vivo, Cyperus rotundus; settings: for Plant response rating, Nutsedge: scale of 0 to 10 where 0 is no effect and 10 is complete control
Method in brief: as §1

bamyardgrass = assay: Test B flood test barnyardgrass; type: in vivo, Echinochloa crus-galli
Method in brief: as §2

rice = assay: Test B flood test rice; type: in vivo, Oryza sativa
Method in brief: as §2

wild oat = assay: Test B pre/postemergence wild oat; type: in vivo, Avena fatua; settings: for Plant response rating, Wild oats: scale of 0 to 10 where 0 is no effect and 10 is complete control
Method in brief: as §1

surinam grass = assay: Test B pre/postemergence surinam grass; type: in vivo, Brachiaria decumbens
Method in brief: as §1

[1] = Postemergence, Rate 250 g/ha, scale 0 to 10
[2] = Preemergence, Rate 250 g/ha, scale 0 to 10, 0 is no effect, 10 is complete control
[3] = Preemergence, Rate 500 g/ha, scale 0 to 10, 0 is no effect, 10 is complete control
[4] = Rate 62 g/ha, Postemergence, scale 0 to 10 (0 no effect, 10 complete control)
[5] = Rate 125 g/ha, Postemergence, scale 0 to 10, 0 is no effect, 10 is complete control
[6] = Rate 62 g/ha, flood test species, Pre-emergence, visual evaluation after twelve to sixteen days
[7] = Rate 125 g/ha, under heading Pre-emergence, flood test species, visual evaluation after twelve to sixteen days
[8] = Rate 250 g/ha, Pre-emergence (flood test species), scale 0 to 10, 0 is no effect, 10 is complete control
[9] = Rate 500 g/ha, Pre-emergence, flood test species, scale 0 to 10 (0 no effect, 10 complete control)
[10] = Postemergence, Rate 500 g/ha, scale of 0 to 10 where 0 is no effect and 10 is complete control
[11] = Preemergence, Rate 62 g/ha, scale of 0 to 10 where 0 is no effect and 10 is complete control
[12] = Preemergence, Rate 125 g/ha, scale of 0 to 10 where 0 is no effect and 10 is complete control

CC(C)N(C(=O)n1oc(=O)n(C(CF)CF)c1=O)c1ccc(Cl)cc1 [Compound 468]
Morningglory plant response rating (morningglory; [1]): 4
Plant response rating, Morningglory (morningglory; Preemergence, Rate 62 g/ha): 0
Plant response rating, Morningglory (morningglory; Preemergence, Rate 125 g/ha): 0
Morningglory plant response rating (morningglory; [2]): 0
Morningglory plant response rating (morningglory; [3]): 2
Morningglory plant response rating (morningglory; [4]): 2
Morningglory plant response rating (morningglory; [5]): 3
Velvetleaf plant response rating (velvetleaf; [1]): 2
Plant response rating, Velvetleaf (velvetleaf; Preemergence, Rate 62 g/ha): 0
Plant response rating, Velvetleaf (velvetleaf; Preemergence, Rate 125 g/ha): 0
Velvetleaf plant response rating (velvetleaf; [2]): 1
Velvetleaf plant response rating (velvetleaf; [3]): 4
Velvetleaf plant response rating (velvetleaf; [4]): 0
Velvetleaf plant response rating (velvetleaf; [5]): 0
Plant response rating, S. Flatsedge (0 to 10 scale, 0 is no effect, 10 is complete control) (smallflower flatsedge; [6]): 0
S. Flatsedge plant response rating (0 to 10 scale, 0 is no effect, 10 is complete control) (smallflower flatsedge; [7]): 0
S. Flatsedge plant response rating (smallflower flatsedge; [8]): 0
S. Flatsedge plant response rating (smallflower flatsedge; [9]): 0
Redroot pigweed plant response rating (pigweed; [1]): 4
Plant response rating, Redroot pigweed (pigweed; Preemergence, Rate 62 g/ha): 0
Plant response rating, Redroot pigweed (pigweed; Preemergence, Rate 125 g/ha): 4
Redroot pigweed plant response rating (pigweed; [2]): 8
Redroot pigweed plant response rating (pigweed; [3]): 10
Redroot pigweed plant response rating (pigweed; [4]): 0
Redroot pigweed plant response rating (pigweed; [5]): 2
Giant foxtail plant response rating (giant foxtail; [1]): 9
Giant foxtail plant response rating (giant foxtail; [10]): 9
Plant response rating, Giant foxtail (giant foxtail; [11]): 6
Plant response rating, Giant foxtail (giant foxtail; [12]): 8
Giant foxtail plant response rating (giant foxtail; [2]): 9
Giant foxtail plant response rating (giant foxtail; [3]): 10
Giant foxtail plant response rating (giant foxtail; [4]): 1
Giant foxtail plant response rating (giant foxtail; [5]): 3
Crabgrass plant response rating (crabgrass; [1]): 9
Crabgrass plant response rating (crabgrass; [10]): 9
Plant response rating, Crabgrass (crabgrass; [11]): 9
Plant response rating, Crabgrass (crabgrass; [12]): 9
Crabgrass plant response rating (crabgrass; [2]): 9
Crabgrass plant response rating (crabgrass; [3]): 9
Crabgrass plant response rating (crabgrass; [4]): 3
Rape plant response rating (rape; [1]): 0
Plant response rating, Rape (rape; Preemergence, Rate 62 g/ha): 0
Plant response rating, Rape (rape; Preemergence, Rate 125 g/ha): 0
Rape plant response rating (rape; [2]): 3
Rape plant response rating (rape; [3]): 6
Rape plant response rating (rape; [4]): 0
Rape plant response rating (rape; [5]): 0
Blackgrass plant response rating (blackgrass; [1]): 7
Blackgrass plant response rating (blackgrass; [10]): 8
Plant response rating, Blackgrass (blackgrass; [11]): 3
Plant response rating, Blackgrass (blackgrass; [12]): 4
Blackgrass plant response rating (blackgrass; [2]): 5
Blackgrass plant response rating (blackgrass; [3]): 9
Blackgrass plant response rating (blackgrass; [4]): 0
Blackgrass plant response rating (blackgrass; [5]): 5
Cocklebur plant response rating (cocklebur; [1]): 2
Cocklebur plant response rating (cocklebur; [10]): 4
Plant response rating, Cocklebur (cocklebur; [11]): 0
Plant response rating, Cocklebur (cocklebur; [12]): 0
Cocklebur plant response rating (cocklebur; [2]): 0
Cocklebur plant response rating (cocklebur; [3]): 0
Cocklebur plant response rating (cocklebur; [4]): 0
Cocklebur plant response rating (cocklebur; [5]): 0
Wheat plant response rating (wheat; [1]): 0
Plant response rating, Wheat (wheat; Preemergence, Rate 62 g/ha): 0
Plant response rating, Wheat (wheat; Preemergence, Rate 125 g/ha): 0
Wheat plant response rating (wheat; [2]): 0
Wheat plant response rating (wheat; [3]): 6
Wheat plant response rating (wheat; [4]): 0
Wheat plant response rating (wheat; [5]): 0
Sugarbeets plant response rating (sugar beet; [1]): 0
Plant response rating, Sugarbeets (sugar beet; Preemergence, Rate 62 g/ha): 0
Plant response rating, Sugarbeets (sugar beet; Preemergence, Rate 125 g/ha): 0
Sugarbeets plant response rating (sugar beet; [2]): 2
Sugarbeets plant response rating (sugar beet; [3]): 6
Sugarbeets plant response rating (sugar beet; [4]): 0
Sugarbeets plant response rating (sugar beet; [5]): 0
Nutsedge plant response rating (purple nutsedge; [1]): 0
Plant response rating, Nutsedge (purple nutsedge; Preemergence, Rate 62 g/ha): 0
Plant response rating, Nutsedge (purple nutsedge; Preemergence, Rate 125 g/ha): 0
Nutsedge plant response rating (purple nutsedge; [2]): 0
Nutsedge plant response rating (purple nutsedge; [3]): 0
Nutsedge plant response rating (purple nutsedge; [4]): 0
Nutsedge plant response rating (purple nutsedge; [5]): 0
Plant response rating, Barnyardgrass (0 to 10 scale, 0 is no effect, 10 is complete control) (bamyardgrass; [6]): 0
Barnyardgrass plant response rating (0 to 10 scale, 0 is no effect, 10 is complete control) (bamyardgrass; [7]): 0
Barnyardgrass plant response rating (bamyardgrass; [8]): 0
Barnyardgrass plant response rating (bamyardgrass; [9]): 0
Plant response rating, Rice (0 to 10 scale, 0 is no effect, 10 is complete control) (rice; [6]): 0
Rice plant response rating (0 to 10 scale, 0 is no effect, 10 is complete control) (rice; [7]): 0
Rice plant response rating (rice; [8]): 0
Rice plant response rating (rice; [9]): 0
Wild oats plant response rating (wild oat; [1]): 0
Plant response rating, Wild oats (wild oat; Preemergence, Rate 62 g/ha): 0
Plant response rating, Wild oats (wild oat; Preemergence, Rate 125 g/ha): 0
Wild oats plant response rating (wild oat; [2]): 3
Wild oats plant response rating (wild oat; [3]): 7
Wild oats plant response rating (wild oat; [4]): 0
Wild oats plant response rating (wild oat; [5]): 0
B. signalgrass plant response rating (surinam grass; Postemergence, Rate 250 g/ha, scale 0 to 10, 0 no effect, 10 complete control): 0
B. signalgrass plant response rating (surinam grass; [10]): 0
Plant response rating, B. signalgrass (surinam grass; [11]): 0
Plant response rating, B. signalgrass (surinam grass; [12]): 2
B. signalgrass plant response rating (surinam grass; [2]): 3
B. signalgrass plant response rating (surinam grass; [3]): 4
B. signalgrass plant response rating (surinam grass; [4]): 0
B. signalgrass plant response rating (surinam grass; [5]): 0
